As usually defined, the pIC50 is the negative decadic logarithm of the IC50, by convention in mol/L. A high value points to a small IC50.

These results are taken from patent US12398120B2, “Substituted hydantoinamides as ADAMTS7 antagonists” (BAYER AKTIENGESELLSCHAFT, priority 2019, dated 2025).

The structures appear in SMILES notation. pIC50: −log10 of the molar value.

In the assay the target is ADAMTS4 (Homo sapiens (Human), UniProt O75173). Nature of the assay: Selectivity assay for ADAMTS-7 modulators: ADAMTS4 (FRET substrate). Particulars: ADAMTS4 (R&D 4307-AD) 50 nM, substrate Dabcyl-EEVKAKVQPY-Glu(Edans)-NH2 1 μM, 120 min, 32° C. It is filed as biochemical. The protocol: 1 μl test compound solution (dissolved in DMSO, at the corresponding concentration) or pure DMSO as a control was added per well. The enzymatic reaction was initiated by addition of 25 μl of the respective concentration of the respective FRET substrate (see table 2 below) in reaction buffer.
Chain of ADAMTS4 (O75173 213-685): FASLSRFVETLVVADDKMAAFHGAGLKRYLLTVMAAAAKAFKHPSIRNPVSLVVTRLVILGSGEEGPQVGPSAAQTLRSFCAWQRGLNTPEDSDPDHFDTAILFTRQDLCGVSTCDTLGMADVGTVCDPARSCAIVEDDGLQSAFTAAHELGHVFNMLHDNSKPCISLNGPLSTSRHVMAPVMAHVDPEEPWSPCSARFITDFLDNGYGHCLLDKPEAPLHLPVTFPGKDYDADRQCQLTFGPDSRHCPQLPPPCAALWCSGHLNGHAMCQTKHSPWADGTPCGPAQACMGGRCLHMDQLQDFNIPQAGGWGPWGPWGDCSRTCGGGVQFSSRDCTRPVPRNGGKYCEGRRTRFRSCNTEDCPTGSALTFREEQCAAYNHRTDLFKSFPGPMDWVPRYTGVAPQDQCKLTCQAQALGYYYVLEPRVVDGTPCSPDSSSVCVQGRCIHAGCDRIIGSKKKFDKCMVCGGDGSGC
The increase of fluorescence intensity was measured in appropriate fluorescence plate reader (e.g. TECAN Ultra) using the respective wavelengths for excitation and emission. IC50 values were calculated from percentage of inhibition of enzyme activity as a function of test compound concentration.
As for `CC(C)C1(CNC(=O)c2ccccc2-c2ccc(C(F)(F)F)cc2)NC(=O)NC1=O` (stereo not drawn) [Example 209, Ent-N-[(4-Isopropyl-2,5-Dioxoimidazolidin-4-Yl)Methyl]-4′-(Trifluoromethyl)[Biphenyl]-2-Carboxamide], the pIC50 was 4.44. The same measure for `O=C1NC(=O)[C@](CNC(=O)c2ccccc2-c2ccc(OC(F)F)cc2)(C2CC2)N1` [Example 127, N-{[(4R)-4-Cyclopropyl-2,5-Dioxoimidazolidin-4-Yl]Methyl}-4′-(Difluoromethoxy)[Biphenyl]-2-Carboxamide]: 4.89; for `Cc1nc(C)c(C2(CNC(=O)c3ccccc3-c3ccc(C(F)(F)F)cc3)NC(=O)NC2=O)s1` (racemic) [Example 15, Rac-N-{[4-(2,4-Dimethyl-1,3-Thiazol-5-Yl)-2,5-Dioxoimidazolidin-4-Yl]Methyl}-4′-(Trifluoromethyl)[Biphenyl]-2-Carboxamide]: 5.11. With `Cc1cn(C)nc1C1(CNC(=O)c2ccccc2-c2ccc(C(F)(F)F)cc2)NC(=O)NC1=O` (stereo not drawn) [Example 70, Ent-N-{[4-(1,4-Dimethyl-1H-Pyrazol-3-Yl)-2,5-Dioxoimidazolidin-4-Yl]Methyl}-4′-(Trifluoromethyl)[Biphenyl]-2-Carboxamide] the figure was 5.35; with `CC(C)C1(CNC(=O)c2ccc(F)cc2-c2ccc(C(F)(F)F)cc2)NC(=O)NC1=O` (single isomer, unassigned; ent-5) [Example 207, Ent-5-Fluoro-N-[(4-Isopropyl-2,5-Dioxoimidazolidin-4-Yl)Methyl]-4′-(Trifluoromethyl)[Biphenyl]-2-Carboxamide], below 4.30.

The molecule `Cc1ncsc1C1(CNC(=O)c2ccccc2-c2ccc(Cl)cc2)NC(=O)NC1=O` (single isomer, unassigned; ent-4) [Example 9, Ent-4′-Chloro-N-{[4-(4-Methyl-1,3-Thiazol-5-Yl)-2,5-Dioxoimidazolidin-4-Yl]Methyl}[Biphenyl]-2-Carboxamide] had a pIC50 of 5.32. With `O=C1NC(=O)C(CNC(=O)c2ccc(F)cc2-c2ccc(C(F)(F)F)cc2)(C2(F)CC2)N1` (single isomer, unassigned; ent-5) [Example 253, Ent-5-Fluoro-N-{[4-(1-Fluorocyclopropyl)-2,5-Dioxoimidazolidin-4-Yl]Methyl}-4′-(Trifluoromethyl)[Biphenyl]-2-Carboxamide] the figure was 4.96; with `O=C1NC(=O)[C@](CNC(=O)c2ccccc2-c2ccc(C3CCC3)cc2)(C2CC2)N1` [Example 112, 4′-Cyclobutyl-N-{[(4R)-4-Cyclopropyl-2,5-Dioxoimidazolidin-4-Yl]Methyl}[Biphenyl]-2-Carboxamide], 5.66; with `Cc1nsnc1C1(CNC(=O)c2ccccc2-c2ccc(C(F)(F)F)nc2)NC(=O)NC1=O` (stereo not drawn) [Example 91, Ent-N-{[4-(4-Methyl-1,2,5-Thiadiazol-3-Yl)-2,5-Dioxoimidazolidin-4-Yl]Methyl}-2-[6-(Trifluoromethyl)Pyridin-3-Yl]Benzamide], 4.52. With `Cc1ncsc1C1(CNC(=O)c2ccccc2-c2ccc(C(F)(F)F)cc2)NC(=O)NC1=O` (racemic) [Example 5, Rac-N-{[4-(4-Methyl-1,3-Thiazol-5-Yl)-2,5-Dioxoimidazolidin-4-Yl]Methyl}-4′-(Trifluoromethyl)[Biphenyl]-2-Carboxamide], the pIC50 was 4.92. Against the preceding molecule, the pIC50 is 0.40 log units higher. In the case of `O=C1NC(=O)C(CNC(=O)c2ccc(F)cc2-c2ccc(Cl)cc2)(c2ncccc2C(F)(F)F)N1` (racemic) [Example 241, Rac-4′-Chloro-N-({2,5-Dioxo-4-[3-(Trifluoromethyl)Pyridin-2-Yl]Imidazolidin-4-Yl}Methyl)-5-Fluoro[Biphenyl]-2-Carboxamide], the pIC50 is 4.39. The same measure for `Cc1nsnc1C1(CNC(=O)c2ccccc2-c2ccc(C(F)(F)F)cc2)NC(=O)NC1=O` (stereo not drawn) [Example 85, Ent-N-{[4-(4-Methyl-1,2,5-Thiadiazol-3-Yl)-2,5-Dioxoimidazolidin-4-Yl]Methyl}-4′-(Trifluoromethyl)[Biphenyl]-2-Carboxamide]: 4.89. With `Cn1ccnc1C1(CNC(=O)c2ccc(F)cc2-c2ccc(C(F)(F)F)cc2)NC(=O)NC1=O` (single isomer, unassigned; ent-5) [Example 150, Ent-5-Fluoro-N-{[4-(1-Methyl-1H-Imidazol-2-Yl)-2,5-Dioxoimidazolidin-4-Yl]Methyl}-4′-(Trifluoromethyl)[Biphenyl]-2-Carboxamide], the negative-log IC50 (pIC50) is 5.73. With `Cc1ccc(-c2cc(C(F)(F)F)ccc2C(=O)NC[C@@]2(C3CC3)NC(=O)NC2=O)cc1` [Example 99, N-{[(4R)-4-Cyclopropyl-2,5-Dioxoimidazolidin-4-Yl]Methyl}-4′-Methyl-5-(Trifluoromethyl)[Biphenyl]-2-Carboxamide] the figure was 5.35; with `O=C1NC(=O)C(CNC(=O)c2ccc(F)cc2-c2ccc(C(F)(F)F)cc2)(c2ncsc2C(F)(F)F)N1` (racemic) [Example 267, Rac-N-({2,5-Dioxo-4-[5-(Trifluoromethyl)-1,3-Thiazol-4-Yl]Imidazolidin-4-Yl}Methyl)-5-Fluoro-4′-(Trifluoromethyl)[Biphenyl]-2-Carboxamide], 4.72.

`Cc1nscc1C1(CNC(=O)c2ccccc2-c2ccc(C(F)(F)F)nc2)NC(=O)NC1=O` (stereo not drawn) [Example 64, Ent-N-{[4-(3-Methyl-1,2-Thiazol-4-Yl)-2,5-Dioxoimidazolidin-4-Yl]Methyl}-2-[6-(Trifluoromethyl)Pyridin-3-Yl]Benzamide]: the pIC50 is 4.92.

In turn, `O=C1NC(=O)C(CNC(=O)c2ccccc2-c2ccc(C(F)(F)F)cc2)(c2ncsc2C(F)(F)F)N1` (racemic) [Example 263, Rac-N-({2,5-Dioxo-4-[5-(Trifluoromethyl)-1,3-Thiazol-4-Yl]Imidazolidin-4-Yl}Methyl)-4′-(Trifluoromethyl)[Biphenyl]-2-Carboxamide] had a pIC50 of 4.49. In turn, `CC(C)C1(CNC(=O)c2ccccc2-c2ccc(C(F)(F)F)cc2)NC(=O)NC1=O` (racemic) [Example 208, Rac-N-[(4-Isopropyl-2,5-Dioxoimidazolidin-4-Yl)Methyl]-4′-(Trifluoromethyl)[Biphenyl]-2-Carboxamide] gave a pIC50 below 4.30. The same measure for `O=C1NC(=O)C(CNC(=O)c2ccc(F)cc2-c2ccc(C(F)(F)F)cc2)(c2cscn2)N1` (racemic) [Example 198, Rac-N-{[2,5-Dioxo-4-(1,3-Thiazol-4-Yl)Imidazolidin-4-Yl]Methyl}-5-Fluoro-4′-(Trifluoromethyl)[Biphenyl]-2-Carboxamide]: 4.41; for `O=C1NC(=O)C(CNC(=O)c2ccccc2-c2ccc(C(F)(F)F)nc2)(c2ccnn2C2CC2)N1` (stereo not drawn) [Example 66, Ent-N-{[4-(1-Cyclopropyl-1H-Pyrazol-5-Yl)-2,5-Dioxoimidazolidin-4-Yl]Methyl}-2-[6-(Trifluoromethyl)Pyridin-3-Yl]Benzamide]: 5.09. With `O=C1NC(=O)C(CNC(=O)c2ccccc2-c2ccc(C(F)(F)F)cc2)(c2ncsc2C2CC2)N1` (racemic) [Example 270, Rac-N-{[4-(5-Cyclopropyl-1,3-Thiazol-4-Yl)-2,5-Dioxoimidazolidin-4-Yl]Methyl}-4′-(Trifluoromethyl)[Biphenyl]-2-Carboxamide] the figure was 5.16; with `Cn1nccc1C1(CNC(=O)c2c(F)cccc2-c2ccc(C(F)(F)F)cc2)NC(=O)NC1=O` (single isomer, unassigned; ent-3) [Example 186, Ent-3-Fluoro-N-{[4-(1-Methyl-1H-Pyrazol-5-Yl)-2,5-Dioxoimidazolidin-4-Yl]Methyl}-4′-(Trifluoromethyl)[Biphenyl]-2-Carboxamide], 4.62.

Molecule `Cn1ccnc1C1(CNC(=O)c2cc(F)c(F)cc2-c2ccc(C3CC3(F)F)cc2)NC(=O)NC1=O` (centres unmarked) [Example 143, 4′-(2,2-Difluorocyclopropyl)-4,5-Difluoro-N-{[4-(1-Methyl-1H-Imidazol-2-Yl)-2,5-Dioxoimidazolidin-4-Yl]Methyl}[1,1′-Biphenyl]-2-Carboxamide] showed a pIC50 of 5.34. The same measure for `Cc1ccc(-c2ccccc2C(=O)NCC2(c3nccs3)NC(=O)NC2=O)cc1` (racemic) [Example 200, Rac-N-{[2,5-Dioxo-4-(1,3-Thiazol-2-Yl)Imidazolidin-4-Yl]Methyl}-4′-Methyl[Biphenyl]-2-Carboxamide]: 4.55; for `O=C1NC(=O)C(CNC(=O)c2ccc(F)cc2-c2ccc(C(F)(F)F)cc2)(c2ncccc2C(F)(F)F)N1` (racemic) [Example 240, Rac-N-({2,5-Dioxo-4-[3-(Trifluoromethyl)Pyridin-2-Yl]Imidazolidin-4-Yl}Methyl)-5-Fluoro-4′-(Trifluoromethyl)[Biphenyl]-2-Carboxamide]: below 4.30.

Regarding `CCc1ccc(-c2ccccc2C(=O)NC[C@@]2(C3CC3)NC(=O)NC2=O)cc1` [Example 106, N-{[(4R)-4-Cyclopropyl-2,5-Dioxoimidazolidin-4-Yl]Methyl}-4′-Ethyl[Biphenyl]-2-Carboxamide], the negative-log IC50 (pIC50) is 5.27.

On to `O=C1NC(=O)C(CNC(=O)c2ccc(F)cc2-c2ccc(Cl)cc2)(C2CC(F)(F)C2)N1` (racemic) [Example 245, Rac-4′-Chloro-N-{[4-(3,3-Difluorocyclobutyl)-2,5-Dioxoimidazoidin-4-Yl]Methyl}-5-Fluoro[Biphenyl]-2-Carboxamide], for which the pIC50 is below 4.30.

In turn, `O=C1NC(=O)[C@](CNC(=O)c2ccccc2-c2ccc(C(F)(F)F)cn2)(C2CC2)N1` [Example 84, N-{[(4R)-4-Cyclopropyl-2,5-Dioxoimidazolidin-4-Yl]Methyl}-2-[5-(Trifluoromethyl)Pyridin-2-Yl]Benzamide] had a pIC50 of 4.30. Molecule `CCC1(CNC(=O)c2ccccc2-c2ccc(C(F)(F)F)cc2)NC(=O)NC1=O` (racemic) [Example 81, Rac-N-[(4-Ethyl-2,5-Dioxoimidazolidin-4-Yl)Methyl]-4′-(Trifluoromethyl)[Biphenyl]-2-Carboxamide] gave a pIC50 below 4.30.
